SMILES strings stand for the structures.

The series can be described thus: Human HepG2 cell viability assay in 384 well format. The following applies: HepG2 cells, read-out: Inhibition. Details: dose 125 nL, time 70.5 hour; concentration not given beside the values. It counts as toxicity, cell-based.
For `CN1CCC(O)(CNC(=O)c2cc(COc3cccc(F)c3)[nH]n2)CC1`, the cytotoxicity at 70.5 h was -6.87%.
To `CNC(=O)c1nn(C)cc1NC(=O)C(C)n1ncc(Cl)c1C` (stereo not drawn) belongs -6.57%.
As to `CC(C)CCn1ccc(NC(=O)N2CCCC2C(C)(C)O)n1` (stereo not drawn), the cytotoxicity at 70.5 h was -6.63%.
To `FC(F)(F)c1cccc(OC2CCN(Cc3ncc[nH]3)CC2)c1` belongs -0.255%; to `CC1(CCNC(=O)NCc2ccsc2)OCCO1`, -6.29%; to `Cc1ccc(-c2nnn(CCN3C(=O)CCC3=O)n2)cc1`, -3.33%.
Consider `CC1CCCN(C(=O)c2cc(-c3ccco3)cs2)C1` (stereo not drawn), for which the cytotoxicity at 70.5 h was -14.8%.
As for `O=S(=O)(N1CCC(n2cccc2)CC1)N1CCCC1c1ccco1` (stereo not drawn), the cytotoxicity at 70.5 h was -10.3%.
Consider `CC(=O)N(C)Cc1ncn2c1CN(C(=O)C1CCCO1)CCC2` (stereo not drawn), for which the cytotoxicity at 70.5 h is -5.86%.
`O=C(c1ccc2[nH]ccc2c1)N1CC[C@@H]2CN(CC3CC3)CCO[C@@H]2C1`: the cytotoxicity at 70.5 h was -7.61%.
For the compound `Cc1occc1C(=O)N1CCn2c(Cn3cncn3)cnc2C1C` (stereo not drawn), the cytotoxicity at 70.5 h stood at 50.5%.
For the compound `O=C(O)CC(NC(=O)c1cc(Br)c[nH]1)c1ccccc1` (stereo not drawn), the cytotoxicity at 70.5 h was -7.36%.
On to `CN(C)C(=O)N1CCc2c(nnn2C)C1COCc1ccccc1` (stereo not drawn), for which the cytotoxicity at 70.5 h is -2.85%.
As to `COc1cccn(CC(=O)N(C)Cc2ccoc2)c1=O`, the cytotoxicity at 70.5 h was determined as 1.59%.
To `OCCNc1cc(-c2nccnc2N2CCCC2)c2cc[nH]c2n1` belongs 34%.
As for `NS(=O)(=O)c1cnc(NCC2(c3ccccc3)CCC2)s1`, the cytotoxicity at 70.5 h was -2.17%.
Consider `CN1CC[C@]2(CN(Cc3nccs3)C[C@H]2c2ccccc2)C1=O`, for which the cytotoxicity at 70.5 h was found to be 4.14%.
To `CCc1cnc(N)nc1NCCc1ccc(OC)cc1OC` belongs -0.653%.
On to `COCC(NC1CSCCSC1)c1ccnn1C` (stereo not drawn), for which the cytotoxicity at 70.5 h is -13.2%.
To `Cc1ccc(OCc2occc2C(=O)N2CC[C@H](CO)[C@@H](O)C2)cc1` belongs -8.34%; to `Cc1cccc(C(=O)N2CC(=O)N(c3ccccc3Cl)CC2C)n1` (stereo not drawn), 49.8%.
On to `Cc1cccc2[nH]c(C3CCN(C(=O)c4cccnn4)CC3)nc12`, for which the cytotoxicity at 70.5 h was determined as 16.6%.
With `CC(C)(C)C(=O)NCC(=O)NC1CC(c2cccc(Cl)c2)C1` (stereo not drawn), the cytotoxicity at 70.5 h was -1.37%.
In the case of `CCOc1ccc(C#N)cc1NCC(=O)OC`, the cytotoxicity at 70.5 h was -2.6%.
As for `CN(C)C(=O)c1ccc(OC2CCCC2)cc1`, the cytotoxicity at 70.5 h is -7%.
Consider `COc1cc2nc3n(c(=O)c2cc1OC)CCN(C(=O)C1CC1)CC3`, for which the cytotoxicity at 70.5 h came out at 20%.
Take `O=C(C[S+]([O-])Cc1cccc(C(F)(F)F)c1)NC1CCCC1` (stereo not drawn): the cytotoxicity at 70.5 h was -8.39%.
In the case of `COc1ncccc1CN1CCc2[nH]nc(C(=O)N3CCCC3C)c2C1` (stereo not drawn), the cytotoxicity at 70.5 h was -3.57%.
In the case of `CCNC(=O)CNC(=O)Nc1c(F)cc(F)cc1-c1ccccc1` it was -9.19%; in that of `CC(C)NC(=O)c1ccc2nnc(C3CCN(S(C)(=O)=O)C3)n2c1` (stereo not drawn), -0.738%; in that of `COc1ccc(C(=O)Nc2cc(CC(C)C)nn2C)cc1`, 7.52%.
To `Cc1ccc(S(=O)(=O)NCCc2ccoc2)s1` belongs -9.94%; to `CC(CC(=O)Nc1ncn(CC(=O)N2CCCCCC2)n1)C1CC1` (stereo not drawn), 0.138%; to `O=S(=O)(NCc1ccc(S(=O)(=O)N2CCCC2)s1)c1ccc(Cl)cc1`, -12.5%.
To `CC(C)C1CN(C(=O)c2cc(C3CC3)n[nH]2)CCC(=O)N1CC1CC1` (stereo not drawn) belongs -3.1%; to `CC(NCc1ccc(-c2ccc(F)cc2)o1)c1nnc2n1CCC2` (stereo not drawn), -9.83%; to `O=C(c1cnc2[nH]c(=O)[nH]c(=O)c2c1)N1CCCC1C1CCCCC1` (stereo not drawn), -5.02%.
Turning to `CC(C)NC(=O)C[C@H]1[C@H]2CN(C(=O)Cc3ccccn3)C[C@@H]12`, the cytotoxicity at 70.5 h worked out at 1.47%.
`Cc1cc(N2CCCN(C(=O)Cc3ccc(O)c(Cl)c3)CC2)ccn1`: the cytotoxicity at 70.5 h is -4.07%.
To `CC(C)CC(NC(=O)c1ccco1)c1nnc2ccccn12` (stereo not drawn) belongs -24.3%; to `CC(NC(=O)CSCC(=O)Nc1ccccc1)c1ccccc1` (stereo not drawn), -1.19%; to `O=C(O)c1ccccc1CN1CCOC(CCc2ccncn2)C1` (stereo not drawn), -4.46%.
`Cc1ccc(NCc2cn3c(n2)CN(Cc2ccc(C)o2)CC3)nn1`: the cytotoxicity at 70.5 h was -4.46%.
To `Cc1nn(C)c(N2CCCN(C)CC2)c1CNC(=O)CC1CCCC1` belongs 0.191%.
Turning to `Cn1cc(C2COC3(CCN(C(=O)c4cccn4C)CC3)C2)cn1` (stereo not drawn), the cytotoxicity at 70.5 h was 14.2%.
For `O=C(N1CCC(Oc2ccncc2)C1)C1(c2cccc(F)c2)CC1` (stereo not drawn), the cytotoxicity at 70.5 h is -1.35%.
Turning to `CC(=O)c1cc(CN2C[C@@H](C(=O)O)[C@H](c3cccnc3)C2)cs1`, the cytotoxicity at 70.5 h is -7.32%.
As for `O=S1(=O)CCC(n2nc(Cc3cccs3)nc2-c2cnccn2)C1` (stereo not drawn), the cytotoxicity at 70.5 h is 0.418%.
To `O=C(Nc1ccc2c(c1)C(=O)NC2)c1ccc(S(=O)(=O)C(F)(F)F)cc1` belongs -2.46%; to `Cc1cc2c(N3CCC(N(C)Cc4cnn(C)c4)CC3)ncnc2s1`, -3.32%; to `CS(=O)(=O)c1cccc(C(=O)N2CCCC(n3cccn3)C2)c1` (stereo not drawn), 2.98%.
On to `Cc1ncccc1Oc1ncnc(N2CCCC(O)(CO)CC2)c1C` (stereo not drawn), for which the cytotoxicity at 70.5 h was -16.4%.
For the compound `COCCn1cnnc1CCn1ccnc1-c1ccccc1Cl`, the cytotoxicity at 70.5 h is 5.9%.
For the compound `CCc1nnc(CN(CC)C(=O)CCc2scnc2C)o1`, the cytotoxicity at 70.5 h was -2.72%.
In the case of `CSc1ccc(C(=O)C2CCCN(C(=O)CCn3cnnn3)C2)cc1` (stereo not drawn), the cytotoxicity at 70.5 h is 14.5%.
Turning to `CC(=O)N1CCC(CCc2ccnc(Nc3ccccn3)c2)CC1`, the cytotoxicity at 70.5 h was 26.8%.
Take `CCCc1cc(C(=O)N2CCCN(c3cccnn3)CC2)[nH]n1`: the cytotoxicity at 70.5 h is -0.666%.
Take `CCc1nccn1CCCNC(=O)CN1CCN(c2ncccn2)CC1`: the cytotoxicity at 70.5 h was -7.13%.
Turning to `O=C(NCCn1cccc1)c1c(O)cc(F)cc1F`, the cytotoxicity at 70.5 h is -6.2%.
For `O=S(=O)(NCC1CCOC1)N1CCc2ccccc2C1` (stereo not drawn), the cytotoxicity at 70.5 h was -0.92%.
For `Cc1cc(C)n(CC(=O)N(CC2CN(C)CCO2)c2nccs2)n1` (stereo not drawn), the cytotoxicity at 70.5 h was -4.83%.
To `O=C(c1cscn1)N1CCC2(COc3ncccc3S(=O)(=O)N2)C1` (stereo not drawn) belongs -3.8%.
Turning to `Cc1ncc(CN(C)C)c(C2CCCN2c2ncccn2)n1` (stereo not drawn), the cytotoxicity at 70.5 h was -7.95%.
On to `COc1ccc(-c2n[nH]c(C)c2CC(=O)N2CCOCC2)cc1`, for which the cytotoxicity at 70.5 h was -6.85%.
Turning to `Cc1noc(CN2CCN(CCS(C)(=O)=O)CC2)n1`, the cytotoxicity at 70.5 h is -2.73%.
To `Cc1noc(C)c1CN1CC[C@H]2OCC[C@@]2(C(=O)N(C)C)C1` belongs -10.5%; to `CC(Nc1cccc2c1OCCO2)C(=O)Nc1ccc(Cl)cc1` (stereo not drawn), 2.81%; to `O=C(NCCc1nc(C2CC2)no1)[C@H]1CNC[C@H](C(=O)N2CCCC2)C1`, -1.74%.
As for `O=C(NC1CC1)C1CNCCN1C(=O)COc1ccc2c(c1)OCO2` (stereo not drawn), the cytotoxicity at 70.5 h was -5.08%.
For `Cc1cc(C)c(CNC(=O)N2CCCC2c2cccn2C)c(=O)[nH]1` (stereo not drawn), the cytotoxicity at 70.5 h stood at 5.45%.
In the case of `O=C(c1ccnnc1)N1C[C@@H](OCC2CCOCC2)[C@H]2OCCC[C@H]21` it was -12.9%; in that of `Fc1ccc(C2CCCN2Cc2nc(Cc3ccccc3F)no2)cc1` (stereo not drawn), 0.991%.
Consider `COCC1CN(Cc2ccc(C)s2)Cc2nnn(C)c21` (stereo not drawn), for which the cytotoxicity at 70.5 h was determined as 2.8%.
Consider `COc1cccc(S(=O)(=O)NC(=O)COc2c(C)cccc2C)c1`, for which the cytotoxicity at 70.5 h was -9.64%.
For the compound `CC(C1CCN(Cc2ccccc2OC(F)F)CC1)N1CCOCC1` (stereo not drawn), the cytotoxicity at 70.5 h was -8.64%.
Turning to `COc1ccccc1OC1CN(C(=O)c2ccccc2C(C)=O)C1`, the cytotoxicity at 70.5 h was -19.5%.
In the case of `CN(Cc1ccco1)Cc1cnc2n1CCN(S(C)(=O)=O)CC2` it was 26.4%; in that of `CC(=O)N(Cc1noc(C2CC2)n1)C1CCN(Cc2ccccc2)C1` (stereo not drawn), -5.69%; in that of `COCCNC(=O)Nc1ccc(-n2cncn2)c(F)c1`, 40.1%.
`CS(=O)(=O)CCc1ncnn1-c1ccc(F)c(Cl)c1`: the cytotoxicity at 70.5 h was -2.51%.
As for `COCCN1C(=O)[C@]2(CC[C@@H]3CN(C(=O)NC(C)C)C[C@@H]32)N=C1C`, the cytotoxicity at 70.5 h stood at 25.4%.
As for `Cc1cc(C[S+]([O-])CC(=O)NCc2ccccc2)no1` (stereo not drawn), the cytotoxicity at 70.5 h is -5.28%.
For `CNS(=O)(=O)c1ccc(C(=O)N2CCCC2c2ccncc2)o1` (stereo not drawn), the cytotoxicity at 70.5 h is -2.81%.
`Cc1[nH]/c(=N/C(=O)Cn2nc(N3CCOCC3)ccc2=O)sc1C`: the cytotoxicity at 70.5 h is -6.43%.
Take `O=c1oc(-c2ccccc2)nn1CN1CCC(N2CCCCC2)CC1`: the cytotoxicity at 70.5 h worked out at 24.3%.
On to `CC(C)(C)c1cc(=O)[nH]c(-c2ccccc2CN2CCCCCC2)n1`, for which the cytotoxicity at 70.5 h is -3.97%.
Regarding `O=C1CN(c2ccc(CNC(=O)Nc3nccs3)cc2)CCN1`, the cytotoxicity at 70.5 h was determined as 1.2%.
Take `CC(=O)Nc1ccc(CNc2cccc(OCCF)c2)cc1`: the cytotoxicity at 70.5 h was -5.76%.
To `c1cncc(OC[C@@]23CCC[C@@H]2CN(C2CCOCC2)C3)c1` belongs -1.53%.
Take `COc1ccc(NC2CCN(C3CC3)C2=O)cn1` (stereo not drawn): the cytotoxicity at 70.5 h was found to be 5.36%.
To `COc1c(CC2CC(CO)=NO2)c(Br)c2c(c1OC)OCO2` (stereo not drawn) belongs -0.342%.
On to `CCc1[nH]c2c(CNC(=O)C3CCC(=O)NC3)cc(C)cc2c1C` (stereo not drawn), for which the cytotoxicity at 70.5 h was -9.39%.
Turning to `Cc1ccc(-c2noc(CCC3CCN(C)CC3)n2)nn1`, the cytotoxicity at 70.5 h was -5.24%.
On to `C=C(C)CN1CCCC1c1nc(Cc2ccc(F)cc2)no1` (stereo not drawn), for which the cytotoxicity at 70.5 h was determined as 12.4%.
Take `Cc1[nH]nc(CCC(=O)NCC2CCN(C3CCCCC3)C2)c1C` (stereo not drawn): the cytotoxicity at 70.5 h is -4.71%.
Consider `CCn1nc(CC(C)C)cc1C(=O)N1CC[C@@H](O)C1`, for which the cytotoxicity at 70.5 h is -3.86%.
For `CC(C)CNC(=O)c1cc2c(s1)CCN2S(C)(=O)=O`, the cytotoxicity at 70.5 h was -10.9%.
In the case of `NCCc1cccc(CN2CCN(c3cccc(Cl)c3)C(=O)C2)c1` it was -7.22%.

(Values after ChEMBL document CHEMBL3507680, “University of Dundee, Gates Library screen for HepG2 cell viability”.)
